Assay results from patent EP3696177A1, “HETEROCYCLIC COMPOUNDS FOR THE CONTROL OF INVERTEBRATE PESTS” (BASF SE, priority 2019, dated 2020).

How the values were obtained:
Assay type in all cases: in vivo
Caenorhabditis elegans = Caenorhabditis elegans liquid diet microtiter plate test; conditions: 96 h, read-out: mortality in comparison with untreated controls (nematode motility (mortality))
Protocol: For evaluating control of Caenorhabditis elegans through contact or systemic means the test unit consisted of 96-well-microtiter plates containing a liquid diet.
The compounds or mixtures were formulated using a solution containing 75% water and 25% DMSO. Different concentrations of formulated compounds were sprayed into the microtiter plate wells at 5µl per well, using a custom built micro atomizer, at two replications. Mixed instar 60-100 C. elegans were transferred into the micro-titer plate wells. After application, the nematodes were incubated at 18 + 1°C, 70 + 5 % RH for 4 days. Nematode motility (mortality) was then visually assessed.

Myzus persicae = assay: Green peach aphid (Myzus persicae) artificial diet/membrane systemic test; conditions: 72 h, read-out: mortality in comparison with untreated controls
Description: For evaluating control of green peach aphid (Myzus persicae) through systemic means the test unit consisted of 96-well-microtiter plates containing liquid artificial diet under an artificial membrane.
The compounds were formulated using a solution containing 75% v/v water and 25% v/v DMSO. Different concentrations of formulated compounds were pipetted into the aphid diet, using a cus-tom built pipetter, at two replications.
After application, 5 - 8 adult aphids were placed on the artificial membrane inside the microtiter plate wells. The aphids were then allowed to suck on the treated aphid diet and incubated at about 23 + 1°C and about 50 + 5 % relative humidity for 3 days. Aphid mortality and fecundity was then visually assessed.

Aedes aegypti = assay: whole plant or invertebrate; conditions: 48 h, A. aegypti larvae, incubated 2 days, read-out: mortality in comparison with untreated controls (larval mortality)
Protocol: For evaluating control of yellow fever mosquito (Aedes aegypti) the test unit consisted of 96-well-microtiter plates containing 200µl of tap water per well and 5-15 freshly hatched A. aegypti larvae.
The active compounds were formulated using a solution containing 75% (v/v) water and 25% (v/v) DMSO. Different concentrations of formulated compounds or mixtures were sprayed onto the insect diet at 2.5µl, using a custom built micro atomizer, at two replications.
After application, microtiter plates were incubated at 28 + 1°C, 80 + 5 % RH for 2 days. Larval mortality was then visually assessed.

dichromothrips corbetti = assay: Orchid thrips floral-immersion test; conditions: 72 h, read-out: mortality in comparison with untreated controls
Protocol: Dichromothrips corbetti adults used for bioassay are obtained from a colony maintained continu-ously under laboratory conditions. For testing purposes, the test compound is diluted in a 1:1 mix-ture of acetone:water (vol:vol), plus Kinetic at a rate of 0.01% v/v.
Thrips potency of each compound is evaluated by using a floral-immersion technique. Each orchid petal is dipped into treatment solution and allowed to dry in Petri dishes. Treated petals are placed into individual re-sealable plastic along with about 20 adult thrips. All test arenas are held under dark condition and a temperature of about 28°C for duration of the assay. The percent mor-tality is recorded 72 hours after treatment.

Heliothis virescens = assay: Tobacco budworm (Heliothis virescens) insect diet microtiter plate test; conditions: 120 h, read-out: mortality in comparison with untreated controls (egg and larval mortality)
Protocol: For evaluating control of tobacco budworm (Heliothis virescens) the test unit consisted of 96-well-microtiter plates containing an insect diet and 15-25 H. virescens eggs.
The compounds were formulated using a solution containing 75% v/v water and 25% v/v DMSO. Different concentrations of formulated compounds were sprayed onto the insect diet at 10 µl, us-ing a custom built micro atomizer, at two replications.
After application, microtiter plates were incubated at about 28 + 1°C and about 80 + 5 % relative humidity for 5 days. Egg and larval mortality was then visually assessed.

Tetranychus kanzawai = assay: Red spider mite (Tetranychus kanzawai) spray test on cowpea beans; conditions: topical, 72 h, read-out: mortality in comparison with untreated controls
Protocol: The active compound is dissolved at the desired concentration in a mixture of 1:1 (vol:vol) distilled water: acetone. Add surfactant (Kinetic) is added at a rate of 0.01% (vol/vol). The test solution is prepared at the day of use.
Potted cowpea beans of 4-5 days of age are cleaned with tap water and sprayed with 1-2 ml of the test solution using air driven DeVilbiss® hand atomizer at 20- 30 psi (≈ 1,38 to 2,07 bar). The treated plants are allowed to air dry and afterwards inoculated with 30 or more mites by clipping a cassava leaf section from rearing population. Treated plants are placed inside a holding room at about 25-26°C and about 65-70% relative humidity. Estimate percent mortality is assessed 72 hours after treatment.

Megoura viciae = assay: Vetch aphid (Megoura viciae) broad bean leaf disk test; conditions: foliar, 120 h, read-out: mortality in comparison with untreated controls
Protocol: For evaluating control of vetch aphid (Megoura viciae) through contact or systemic means the test unit consisted of 24-well-microtiter plates containing broad bean leaf disks.
The compounds were formulated using a solution containing 75% v/v water and 25% v/v DMSO. Different concentrations of formulated compounds were sprayed onto the leaf disks at 2.5 µl, us-ing a custom built micro atomizer, at two replications.
After application, the leaf disks were air-dried and 5 - 8 adult aphids placed on the leaf disks in-side the microtiter plate wells. The aphids were then allowed to suck on the treated leaf disks and incubated at about 23 + 1°C and about 50 + 5 % relative humidity for 5 days. Aphid mortality and fecundity was then visually assessed.

Nephotettix virescens = assay: Rice green leafhopper (Nephotettix virescens) spray test on rice seedlings; conditions: adults, after 72 hours, read-out: mortality in comparison with untreated controls
Protocol: Four to five-week old rice seedlings with cut upper leaf portion are cleaned and washed 24 hours before spraying. The active compounds are formulated in 1:1 acetone:water (vol:vol), and 0.01% vol/vol surfactant (Kinetic) is added. Potted rice seedlings are sprayed with 5-6 ml test solution, air dried, covered with Mylar cages and inoculated with 10 adults. Treated rice plants are kept at about 28-29°C and relative humidity of about 50-60%. Percent mortality is recorded after 72 hours.

Plutella xylostella = assay: Diamond back moth (Plutella xylostella) cabbage leaf disc dip test; conditions: foliar, 72 h, read-out: mortality in comparison with untreated controls
Protocol: The active compound is dissolved at the desired concentration in a mixture of 1:1 (vol:vol) distilled water: acetone. Surfactant (Kinetic) is added at a rate of 0.01% (vol/vol). The test solution is pre-pared at the day of use.
Cabbage leaf discs (60mm in diameter) are dipped in test solution and air-dried. Treated leaves are placed in petri dishes lined with moistened filter paper and inoculated with ten 3rd instar larvae. Mortality is recorded 72 hours after treatment. Feeding damage is also recorded using a scale of 0-100%.

Anthonomus grandis = assay: Boll weevil (Anthonomus grandis) insect diet microtiter plate test; conditions: 120 h, read-out: mortality in comparison with untreated controls (egg and larval mortality)
Protocol: For evaluating control of boll weevil (Anthonomus grandis) the test unit consisted of 96-well-microtiter plates containing an insect diet and 5-10 A. grandis eggs.
The compounds were formulated using a solution containing 75% v/v water and 25% v/v DMSO. Different concentrations of formulated compounds were sprayed onto the insect diet at 5 µl, using a custom built micro atomizer, at two replications.
After application, microtiter plates were incubated at about 25 + 1°C and about 75 + 5 % relative humidity for 5 days. Egg and larval mortality was then visually assessed.

O=C(NCC1OCN(CC2CC2)C1=O)c1ccc(C2=NOC(c3cc(Cl)c(F)c(Cl)c3)(C(F)(F)F)C2)c2c1CCC2 (centres unmarked) [Compound I-3-2]
> 75%: mortality at 2500 ppm (Caenorhabditis elegans) | mortality at 2500 ppm (Myzus persicae) | mortality at 2500 ppm (Aedes aegypti) | mortality at 300 ppm (dichromothrips corbetti) | mortality at 2500 ppm (Heliothis virescens) | mortality at 300 ppm (Tetranychus kanzawai) | mortality at 2500 ppm (Megoura viciae) | mortality at 300 ppm (Nephotettix virescens) | mortality at 300 ppm (Plutella xylostella) | mortality at 2500 ppm (Anthonomus grandis)

O=C(NCC1OCN(CC2CC2)C1=O)c1ccc(C2=NOC(c3cc(Cl)cc(C(F)(F)F)c3)(C(F)(F)F)C2)c2c1CCC2 (centres unmarked) [Compound I-3-4]
> 75%: mortality at 2500 ppm (Myzus persicae) | mortality at 2500 ppm (Aedes aegypti) | mortality at 300 ppm (dichromothrips corbetti) | mortality at 2500 ppm (Heliothis virescens) | mortality at 2500 ppm (Megoura viciae) | mortality at 300 ppm (Plutella xylostella) | mortality at 2500 ppm (Anthonomus grandis)

O=C(NCC1OCN(CC2CC2)C1=O)c1ccc(C2=NOC(c3cc(Cl)c(F)c(Cl)c3)(C(F)(F)F)C2)cc1Cl (centres unmarked) [Compound I-3-6]
> 75%: mortality at 2500 ppm (Myzus persicae) | mortality at 2500 ppm (Aedes aegypti) | mortality at 300 ppm (dichromothrips corbetti) | mortality at 2500 ppm (Heliothis virescens) | mortality at 2500 ppm (Megoura viciae) | mortality at 300 ppm (Plutella xylostella) | mortality at 2500 ppm (Anthonomus grandis)

CCN1COC(CNC(=O)c2ccc(C3=NOC(c4cc(Cl)cc(Cl)c4)(C(F)(F)F)C3)cc2Cl)C1=O (centres unmarked) [Compound I-3-8]
> 75%: mortality at 2500 ppm (Caenorhabditis elegans) | mortality at 2500 ppm (Myzus persicae) | mortality at 2500 ppm (Aedes aegypti) | mortality at 300 ppm (dichromothrips corbetti) | mortality at 2500 ppm (Heliothis virescens) | mortality at 2500 ppm (Megoura viciae) | mortality at 300 ppm (Plutella xylostella) | mortality at 2500 ppm (Anthonomus grandis)

O=C(NCC1OCN(CC(F)(F)F)C1=O)c1ccc(C2=NOC(c3cc(Cl)cc(Cl)c3)(C(F)(F)F)C2)cc1Cl (centres unmarked) [Compound I-3-9]
> 75%: mortality at 2500 ppm (Caenorhabditis elegans) | mortality at 2500 ppm (Myzus persicae) | mortality at 2500 ppm (Aedes aegypti) | mortality at 300 ppm (dichromothrips corbetti) | mortality at 2500 ppm (Heliothis virescens) | mortality at 2500 ppm (Megoura viciae) | mortality at 300 ppm (Plutella xylostella) | mortality at 2500 ppm (Anthonomus grandis)

O=C(NCC1OCN(CC2CC2)C1=O)c1ccc(C2=NOC(c3cc(Cl)cc(Cl)c3)(C(F)(F)F)C2)cc1Cl (centres unmarked) [Compound I-3-10]
> 75%: mortality at 2500 ppm (Caenorhabditis elegans) | mortality at 2500 ppm (Myzus persicae) | mortality at 2500 ppm (Aedes aegypti) | mortality at 300 ppm (dichromothrips corbetti) | mortality at 2500 ppm (Heliothis virescens) | mortality at 300 ppm (Plutella xylostella) | mortality at 2500 ppm (Anthonomus grandis)

Cc1cc(C2=NOC(c3cc(Cl)cc(Cl)c3)(C(F)(F)F)C2)ccc1C(=O)NCC1OCN(CC(F)(F)F)C1=O (centres unmarked) [Compound I-3-13]
> 75%: mortality at 2500 ppm (Caenorhabditis elegans) | mortality at 2500 ppm (Myzus persicae) | mortality at 2500 ppm (Aedes aegypti) | mortality at 300 ppm (dichromothrips corbetti) | mortality at 2500 ppm (Heliothis virescens) | mortality at 300 ppm (Tetranychus kanzawai) | mortality at 2500 ppm (Megoura viciae) | mortality at 300 ppm (Plutella xylostella) | mortality at 2500 ppm (Anthonomus grandis)

Cc1cc(C2=NOC(c3cc(Cl)cc(Cl)c3)(C(F)(F)F)C2)ccc1C(=O)NCC1OCN(CC2CC2)C1=O (centres unmarked) [Compound I-3-14]
> 75%: mortality at 2500 ppm (Caenorhabditis elegans) | mortality at 2500 ppm (Myzus persicae) | mortality at 2500 ppm (Aedes aegypti) | mortality at 300 ppm (dichromothrips corbetti) | mortality at 2500 ppm (Heliothis virescens) | mortality at 300 ppm (Tetranychus kanzawai) | mortality at 2500 ppm (Megoura viciae) | mortality at 300 ppm (Plutella xylostella) | mortality at 2500 ppm (Anthonomus grandis)

CN1C(=O)OC(CNC(=O)c2ccc(C3=NOC(c4cc(Cl)cc(Cl)c4)(C(F)(F)F)C3)cc2Cl)C1=O (centres unmarked) [Compound I-4-1, 2-chloro-4-[5-(3,5-dichlorophenyl)-5-(trifluoromethyl)-4H-isoxazol-3-yl]-N-[(3-methyl-2,4-dioxo-oxazolidin-5-yl)methyl]benzamide]
> 75%: mortality at 2500 ppm (Caenorhabditis elegans) | mortality at 2500 ppm (Myzus persicae) | mortality at 300 ppm (dichromothrips corbetti) | mortality at 2500 ppm (Heliothis virescens) | mortality at 2500 ppm (Megoura viciae) | mortality at 300 ppm (Plutella xylostella) | mortality at 2500 ppm (Anthonomus grandis)

O=C(NCC1OC(=O)N(CC(F)(F)F)C1=O)c1ccc(C2=NOC(c3cc(Cl)cc(Cl)c3)(C(F)(F)F)C2)cc1Cl (centres unmarked) [Compound I-4-2]
> 75%: mortality at 2500 ppm (Caenorhabditis elegans) | mortality at 2500 ppm (Myzus persicae) | mortality at 2500 ppm (Aedes aegypti) | mortality at 300 ppm (dichromothrips corbetti) | mortality at 2500 ppm (Heliothis virescens) | mortality at 2500 ppm (Megoura viciae) | mortality at 300 ppm (Plutella xylostella) | mortality at 2500 ppm (Anthonomus grandis)

O=C(NCC1OC(=O)N(CC2CC2)C1=O)c1ccc(C2=NOC(c3cc(Cl)cc(Cl)c3)(C(F)(F)F)C2)cc1Cl (centres unmarked) [Compound I-4-3]
> 75%: mortality at 2500 ppm (Caenorhabditis elegans) | mortality at 2500 ppm (Myzus persicae) | mortality at 2500 ppm (Aedes aegypti) | mortality at 300 ppm (dichromothrips corbetti) | mortality at 2500 ppm (Heliothis virescens) | mortality at 2500 ppm (Megoura viciae) | mortality at 300 ppm (Plutella xylostella) | mortality at 2500 ppm (Anthonomus grandis)

Cc1cc(C2=NOC(c3cc(Cl)cc(Cl)c3)(C(F)(F)F)C2)ccc1C(=O)NCC1OC(=O)N(C)C1=O (centres unmarked) [Compound I-4-4]
> 75%: mortality at 2500 ppm (Caenorhabditis elegans) | mortality at 2500 ppm (Myzus persicae) | mortality at 2500 ppm (Aedes aegypti) | mortality at 300 ppm (dichromothrips corbetti) | mortality at 2500 ppm (Heliothis virescens) | mortality at 300 ppm (Tetranychus kanzawai) | mortality at 2500 ppm (Megoura viciae) | mortality at 300 ppm (Plutella xylostella) | mortality at 2500 ppm (Anthonomus grandis)

Cc1cc(C2=NOC(c3cc(Cl)cc(Cl)c3)(C(F)(F)F)C2)ccc1C(=O)NCC1OC(=O)N(CC(F)(F)F)C1=O (centres unmarked) [Compound I-4-5]
> 75%: mortality at 2500 ppm (Caenorhabditis elegans) | mortality at 2500 ppm (Myzus persicae) | mortality at 2500 ppm (Aedes aegypti) | mortality at 300 ppm (dichromothrips corbetti) | mortality at 2500 ppm (Heliothis virescens) | mortality at 2500 ppm (Megoura viciae) | mortality at 300 ppm (Plutella xylostella) | mortality at 2500 ppm (Anthonomus grandis)

Cc1cc(C2=NOC(c3cc(Cl)cc(Cl)c3)(C(F)(F)F)C2)ccc1C(=O)NCC1OC(=O)N(CC2CC2)C1=O (centres unmarked) [Compound I-4-6]
> 75%: mortality at 2500 ppm (Caenorhabditis elegans) | mortality at 2500 ppm (Myzus persicae) | mortality at 2500 ppm (Aedes aegypti) | mortality at 300 ppm (dichromothrips corbetti) | mortality at 2500 ppm (Heliothis virescens) | mortality at 2500 ppm (Megoura viciae) | mortality at 300 ppm (Plutella xylostella) | mortality at 2500 ppm (Anthonomus grandis)
